The target in the test is T1, BmTy (tyrosinase from Bacillus megaterium) (Priestia megaterium, UniProt B2ZB02).
T1 construct: 6x His-tagged, expressed in E. coli BL21(DE3), Ni-NTA purified
T1 sequence (B2ZB02 1-297): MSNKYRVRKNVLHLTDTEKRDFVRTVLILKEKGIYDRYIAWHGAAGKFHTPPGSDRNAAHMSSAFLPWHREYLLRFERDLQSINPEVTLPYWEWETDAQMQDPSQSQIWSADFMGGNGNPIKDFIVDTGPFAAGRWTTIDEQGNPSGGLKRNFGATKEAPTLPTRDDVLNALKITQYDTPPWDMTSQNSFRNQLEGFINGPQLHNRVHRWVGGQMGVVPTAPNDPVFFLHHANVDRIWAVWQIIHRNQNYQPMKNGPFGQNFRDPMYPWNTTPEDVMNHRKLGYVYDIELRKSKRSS
In words: dopachrome assay at […] nm, initial rates, L-tyrosine as substrate (monophenolase activity). It counts as biochemical. Conditions: read-out: KI1.

For `O=c1c(O)c(-c2ccc(O)c(O)c2)oc2cc(O)cc(O)c12` [QUE, quercetin], the Ki came to 33.9 µM.

Source of the values: publication PMC8466947, “Polyphenol-Hydroxylating Tyrosinase Activity under Acidic pH Enables Efficient Synthesis of Plant Catechols and Gallols” (Microorganisms, 2021).
